Test results published in publication PMC11434342, “Novel Autotaxin Inhibitor ATX-1d Significantly Enhances Potency of Paclitaxel—An In Silico and In Vitro Study” (Molecules, 2024).

molecular target: T1, autotaxin (ATX) (Homo sapiens, UniProt Q13822); experiment: biochemical; parameters: Inhibition of hydrolysis of fluorogenic lysophospholipid substrate FS-3 by recombinant human autotaxin, fluorescence read-out; conditions: read-out: % inhibition in ATX assay at 10 µM
T1 construct: gene ENPP2; human recombinant ATX (hATX)
Experimental: Human recombinant ATX (hATX) was purified as previously described. The enzymatic activity of ATX was assessed by measuring the hydrolysis of the synthetic lipid-like FRET-based substrate FS-3 from Echelon Biosciences. Compounds predicted to have potential inhibitory effects through molecular docking were initially screened at a concentration of 10 μM. The reaction mixtures were prepared in 60 μL volumes and loaded into triplicate wells of black-wall 96-well plates. The assay buffer consisted of 50 mM Tris, 140 mM NaCl, 5 mM KCl, 1 mM CaCl2, 1 mM MgCl2, and 10 μM BSA, with the pH adjusted to 8.0. Each assay contained 4 nM ATX and 1 μM FS-3. The test compounds were diluted in an assay buffer and tested in technical triplicates. […] Fluorescence readings were taken at 2 min intervals over 1 h using excitation and emission wavelengths of 485 and 538 nm. Fluorescence data were collected as relative fluorescence units (RFUs) and averaged for the triplicate samples. A compound was considered an experimentally validated hit if it caused more than 50% inhibition of FS-3 hydrolysis at 10 µM concentration. For dose–response studies, nonlinear regression analysis was performed using GraphPad Prism (GraphPad Software, version 10.0.2 (232), San Diego, CA, USA). A variable four-parameter slope model was applied to fit the data, allowing for determining the Hill slope and interpolation of the IC50 ± SD. Fluorescence measurements were conducted using the CLARIOstar Plus plate reader from BMG Labtech (BMG Labtech, Ortenberg, Baden-Württemberg, Germany). Inhibition assays targeting the ATX-mediated hydrolysis of FS-3 were performed with 45 selected compounds, each at a fixed concentration of 10 μM. Compounds were classified as experimentally validated hits if they achieved more than 50% inhibition of the hydrolysis of the model lysophospholipase D substrate FS-3. From this initial screening, only one compound, ATX-1d, met this criterion (Supplementary Information, Table S1). ATX-1d was then subjected to a dose–response assay to determine its IC50 value (Figure 4). […] BMP-22, a previously validated inhibitor of ATX, was used as a control. The second replicate is shown in the Supplementary Information, Figure S2.

inhibition at 10 µM | Structure (SMILES)
32.6% | COC(=O)C(OCCCCOC1=CC(=O)CC(C)(C)C1)c1ccccc1 (centres unmarked) [ATX-4g]
10% | CCN1C(=O)CC(C2(c3ccccn3)C(=O)N(CC)C(=O)/C2=C(\C(=O)OC)c2ccc(F)cc2)C1=O (centres unmarked) [ATX-1i]
-4.52% | CCOC(=O)C1C(C(=O)OCC)C12C(=O)N(C(C)=O)c1ccccc12 (centres unmarked) [ATX-5c]
-5.76% | CCN1C(=O)C2C(c3cccc(F)c3)OC(C(=O)OC)(c3ccc(C(C)(C)C)cc3)C2C1=O (centres unmarked) [ATX-3h]
-0.48% | CCOC(=O)C1C(C(=O)OCC)C12C(=O)N(C(=O)OC(C)(C)C)c1ccc(Br)cc12 (centres unmarked) [ATX-5g]
4.61% | CCN1C(=O)C2C(C)=N[C@](C(=O)OC)(c3cccc(OC)c3)[C@@H]2C1=O (some centres unmarked) [ATX-2d]
12.6% | COC(=O)C(OCCCCOC1=CC(=O)CC(C)(C)C1)c1cccc(OC)c1 (centres unmarked) [ATX-4b]
-0.36% | CCOC(=O)/C(=C1\C(=O)N(C)C(=O)C1(c1ccccn1)C1CC(=O)N(C)C1=O)c1ccc(C)cc1 (centres unmarked) [ATX-1f]
24.9% | CCC1=N[C@](C(=O)OC)(c2ccc(Br)cc2)[C@@H]2C(=O)N(Cc3ccccc3)C(=O)C12 (some centres unmarked) [ATX-2b]
-30.1% | COC(=O)C1(c2ccccc2)OC(c2cccc(OC)c2)C2C(=O)N(c3ccccc3)C(=O)C21 (centres unmarked) [ATX-3g]
19% | CCC1=N[C@](C(=O)OC)(c2ccc(Br)cc2)[C@@H]2C(=O)N(C)C(=O)C12 (some centres unmarked) [ATX-2a]
-19.6% | COC(=O)C(OCCCCOC1=CC(=O)CC(C)(C)C1)c1ccc(C(C)(C)C)cc1 (centres unmarked) [ATX-4c]
-35.9% | COC(=O)C1(c2ccc(Cl)cc2)OC(c2ccc(F)cc2F)C2C(=O)N(c3ccccc3)C(=O)C21 (centres unmarked) [ATX-3c]
33.6% | Cc1ccccc1C(OCCCCOC1=CC(=O)CC(C)(C)C1)C(=O)OCc1ccccc1 (centres unmarked) [ATX-4e]
10.1% | CCC1=N[C@](C(=O)OC)(c2ccc(Br)cc2)[C@@H]2C(=O)N(CC)C(=O)C12 (some centres unmarked) [ATX-2e]
-10.2% | CCOC(=O)C1C(C(=O)OCC)C12C(=O)N(C(C)=O)c1ccc(C)cc12 (centres unmarked) [ATX-5j]
42.5% | COC(=O)/C(=C1\C(=O)N(C)C(=O)C1(c1ccccn1)C1CC(=O)N(C)C1=O)c1ccc(C(C)(C)C)cc1 (centres unmarked) [ATX-1a]
3.38% | CCC1=N[C@](C(=O)OC)(c2ccccc2)[C@@H]2C(=O)N(Cc3ccccc3)C(=O)C12 (some centres unmarked) [ATX-2g]
3.59% | CCN1C(=O)CC(C2(c3ccccn3)C(=O)N(CC)C(=O)/C2=C(\C(=O)OC)c2ccccc2)C1=O (centres unmarked) [ATX-1b]
7.6% | CCN1C(=O)CC(C2(c3ccccn3)C(=O)N(CC)C(=O)/C2=C(\C(=O)OC)c2cccc(OC)c2)C1=O (centres unmarked) [ATX-1h]
-37.4% | COC(=O)C1(c2ccccc2)OC(c2cccc(F)c2)C2C(=O)N(c3ccccc3)C(=O)C21 (centres unmarked) [ATX-3i]
18.7% | COC(=O)C(OCCCCOC1=CC(=O)CC(C)(C)C1)c1ccc(Br)cc1 (centres unmarked) [ATX-4a]
40.7% | COC(=O)C(OCCCCOC1=CC(=O)CC(C)(C)C1)c1cccc(Cl)c1 (centres unmarked) [ATX-4f]
16.2% | COC(=O)C1(c2cccc(OC)c2)OC(c2cccc(Cl)c2)C2C(=O)N(Cc3ccccc3)C(=O)C21 (centres unmarked) [ATX-3j]
13% | CCC1=N[C@](C(=O)OC)(c2cccc(OC)c2)[C@@H]2C(=O)N(C)C(=O)C12 (some centres unmarked) [ATX-2c]
41.4% | COC(=O)C(OCCCCOC1=CC(=O)CC(C)(C)C1)c1cccc(F)c1 (centres unmarked) [ATX-4j]
5.8% | COC(=O)C1(c2ccc(Cl)cc2)OC(c2cccc(OC)c2)C2C(=O)N(c3ccccc3)C(=O)C21 (centres unmarked) [ATX-3f]

Structure (SMILES) | inhibition at 10 µM
COC(=O)C(OCCCCOC1=CC(=O)CC(C)(C)C1)c1cccc(C(F)(F)F)c1 (centres unmarked) [ATX-4i] | 15.2%

molecular target: T1, autotaxin (ATX); experiment: FS-3 fluorogenic substrate hydrolysis, dose-response with purified recombinant ATX ([…]); assay type: biochemical; conditions: not given

Structure (SMILES) | IC50
CCCCCCCCCCCCCCCc1ccc(CP(=O)(O)O)cc1 [BMP-22, reference compound] | 0.2 ± 0.1 µM
